Reference: PMC4784888, “Activity Based High-Throughput Screening for Novel O-GlcNAc Transferase Substrates Using a Dynamic Peptide Microarray” (PLoS ONE, 2016)

Tests used:
Assay type in all cases: biochemical, human
s-OGT [1] = assay: O-GlcNAcylation on kinase substrate peptide microarray, s-OGT; details: bacterial lysate containing s-OGT (7 μg/μL), 1 mM UDP-GlcNAc, 50 mM Tris-HCl pH 7.5, 30°C, FITC antibody fluorescence, corrected for signal without UDP-GlcNAc
Experimental: (§1) Plasmids encoding s-OGT, m-OGT, and nc-OGT are generous gifts from John A. Hanover (National Institute of Health, USA). OGT overexpression was carried out as previously described. All the plasmids were transformed into E.coli BL21 (DE3) competent cells to produce a cell lysate containing OGT for use or for further purification. Briefly, inoculated a single colony into 50 ml of LB broth media containing 50 μg/ml ampicillin and cells were grown overnight at 37°C with vigorous shaking. 50 mL of the start culture was added into 1L LB broth media containing 50 μg/mL ampicillin and it was incubated with shaking at 200 rpm at 37°C until A600 reached 0.4–0.6. After the culture was cooled to room temperature, 0.5 mM IPTG was added into the culture to induce protein expression. After 16 hours, the cells were collected by centrifugation for 10 min at 4000 RPM at 4°C. The pellets were lysed in lysis buffer containing 20 mM Tris-HCl, pH 7.5, 1 mg/mL lysome, 0.1% triton x-100 and complete mini EDTA-free protease inhibitor cocktail on ice for 10 min and the lysate was sonicated until the DNA was completely sheared. After centrifugation for 10 min at 12000 rpm at 4°C, the supernatant was carefully transferred into a clean tube and was ready for the array assay or for further purification. Protein expression was determined by coomassie blue staining and western blotting using an anti-OGT antibody.
(§2) Peptide O-GlcNAcylation was assessed using PamChip 4 microarray chips with a PamStation 12 instrument (Pamgene international, The Netherlands). The OGT enzyme reaction was prepared essentially as described[26] with minor modifications. Briefly, before addition of the enzyme reaction, the microarray was blocked with blocking buffer (1% BSA in TBS). After 30 cycles (2 cycles/min) blocking, the blocking buffer was aspirated and the microarray was incubated with 40 μL of the enzyme reaction containing OGT (lysate or purified), OGT reaction buffer (50 mM Tris—HCl, pH 7.5;1 mM DTT;12.5 mM MgCl2), a 1:1 pre-incubated mixture of anti-O-GlcNAc and FITC conjugated secondary antibody, and the sugar donor UDP-GlcNAc or water as a control for 480 cycles (2 cycles/min) at 30°C. The microarray was run in parallel by pumping the reaction up and down through the porous membrane at every cycle and a tiff image was obtained at every 20 cycles by a CCD camera inside the PamStation. O-GlcNAcylation of each peptide was detected by a fluorescent signal which was produced by an FITC conjugated antibody bound to the O-GlcNAc moiety on the peptide.
(§3) Image analysis was performed using BioNavigator 6 software (Pamgene international, The Netherlands). Briefly, each image was quantified by automated array grid finding and subsequent quantification of signal and local background for each individual spot. In this work, the signal median-minus-background value was used as the quantitative parameter for the O-GlcNAcylation of the peptide.
(§4) Dynamic peptide microarray (PamChip) technology has been successfully and widely used for kinase activities profiling in the last decade. In the present work, we describe, for the first time, the utility of this peptide microarray format for the identification of human OGT activity. Due to the fact that O-GlcNAcylation and phosphorylation may occur at the same or proximal amino acids on the same protein [9], a peptide microarray of 144 peptides derived from different kinase substrates (S1 Appendix) was selected for an initial test. […] O-GlcNAcylation of peptides in each individual spot was detected by a fluorescent signal produced by the FITC labelled antibody recognizing the O-GlcNAcylated amino acids of converted peptides. Kinetic activity was measured through scanning the signal at regular intervals.
(§5) Fig 2 Identification of human OGT substrates from a kinase substrate and nuclear hormone receptor interaction peptide microarray. […]

m-OGT [2] = assay: O-GlcNAcylation on kinase substrate peptide microarray, m-OGT; details: bacterial lysate containing m-OGT (7 μg/μL), 1 mM UDP-GlcNAc, 50 mM Tris-HCl pH 7.5, 30°C, FITC antibody fluorescence, corrected for signal without UDP-GlcNAc
Experimental: as §1, §2, §3, §4, §5

nc-OGT [3] = assay: O-GlcNAcylation on kinase substrate peptide microarray, nc-OGT; details: bacterial lysate containing nc-OGT (7 μg/μL), 1 mM UDP-GlcNAc, 50 mM Tris-HCl pH 7.5, 30°C, FITC antibody fluorescence, corrected for signal without UDP-GlcNAc
Experimental: as §1, §2, §3, §4, §5

s-OGT [4] = assay: O-GlcNAcylation on nuclear hormone receptor interaction peptide microarray, s-OGT; details: bacterial lysate containing s-OGT (7 μg/μL), 1 mM UDP-GlcNAc, 50 mM Tris-HCl pH 7.5, 30°C, FITC antibody fluorescence, corrected for signal without UDP-GlcNAc
Experimental: as §1, §2, §3, §4, §5

m-OGT [5] = assay: O-GlcNAcylation on nuclear hormone receptor interaction peptide microarray, m-OGT; details: bacterial lysate containing m-OGT (7 μg/μL), 1 mM UDP-GlcNAc, 50 mM Tris-HCl pH 7.5, 30°C, FITC antibody fluorescence, corrected for signal without UDP-GlcNAc
Experimental: as §1, §2, §3, §4, §5

nc-OGT [6] = assay: O-GlcNAcylation on nuclear hormone receptor interaction peptide microarray, nc-OGT; details: bacterial lysate containing nc-OGT (7 μg/μL), 1 mM UDP-GlcNAc, 50 mM Tris-HCl pH 7.5, 30°C, FITC antibody fluorescence, corrected for signal without UDP-GlcNAc
Experimental: as §1, §2, §3, §4, §5

[7] = test system: OGT (s-OGT, m-OGT, nc-OGT); assay: O-GlcNAcylation on nuclear hormone receptor interaction peptide microarray, three isoforms taken together; details: for O-GlcNAcylation by three isoforms: nuclear hormone receptor interaction microarray, bacterial lysates s-, m-, nc-OGT, 1 mM UDP-GlcNAc; for identification in microarray assay: nuclear receptor interaction peptide microarray
Experimental: as §1, §2, §3
as §4, with “activity.” for “activity. Due to the fact that O-GlcNAcylation and phosphorylation may occur at the same or proximal amino acids on the same protein [9], a peptide microarray of 144 peptides derived from different kinase substrates (S1 Appendix) was selected for an initial test.”, “intervals. […]” for “intervals.”

Sequence	OGT isoforms activity, s (s-OGT [1])	OGT isoforms activity, m (m-OGT [2])	OGT isoforms activity, nc (nc-OGT [3])	OGT isoforms activity, s (s-OGT [4])	OGT isoforms activity, m (m-OGT [5])	OGT isoforms activity, nc (nc-OGT [6])	O-GlcNAcylation by three isoforms [7]	identification in microarray assay [7]
DNTPHTPTPFKNA [MYBB_513_525, kinase substrate microarray peptide …]	P (Signal greater than 5% of the highest signal was defined as positive (P))	N (otherwise negative (N))	N (otherwise negative (N))	–	–	–	–	–
DSVRKGKQDSTLLASLLQSFSSR [NRIP1_121_143_P124R]	–	–	–	N (otherwise negative)	P (Signal greater than 5% of the highest signal was defined as positive)	N (otherwise negative)	–	–
EGLRSRSTRMSTVS [KIF2C_105_118_S106G, kinase substrate microarray peptide …]	N (otherwise negative (N))	P (Signal greater than 5% of the highest signal was defined as positive (P))	N (otherwise negative (N))	–	–	–	–	–
ERSKTVTSFYNQS [BCKD_45_57, kinase substrate microarray peptide …]	N (otherwise negative (N))	N (otherwise negative (N))	P (Signal greater than 5% of the highest signal was defined as positive (P))	–	–	–	–	–
GLGRSITSPTTLY [RBL-2_655_667, kinase substrate microarray peptide …]	P (Signal greater than 5% of the highest signal was defined as positive (P))	P (Signal greater than 5% of the highest signal was defined as positive (P))	P (Signal greater than 5% of the highest signal was defined as positive (P))	–	–	–	–	–
GQRNISTLSTIQKLPRLLVASSS [WIPI1_313_335_C318S]	–	–	–	P (Signal greater than 5% of the highest signal was defined as positive)	P (Signal greater than 5% of the highest signal was defined as positive)	P (Signal greater than 5% of the highest signal was defined as positive)	O-GlcNAcylation by three isoforms was observed	–
GSDVHQDSIVLTYLEGLLMHQAA [NRIP1_8_30]	–	–	–	N (otherwise negative)	P (Signal greater than 5% of the highest signal was defined as positive)	N (otherwise negative)	–	–
GTGGLSAVSSGPRLRLLLLESVS [PELP1_20_42]	–	–	–	–	–	–	–	not identified in our microarray assay
HGEDFSKVSQNPILTSLLQITGNG [MED1_591_614]	–	–	–	N (otherwise negative)	N (otherwise negative)	P (Signal greater than 5% of the highest signal was defined as positive)	–	–
HGSQNRPLLRNSLDDLLGPPSNA [NCOA3_MOUSE_1029_1051]	–	–	–	N (otherwise negative)	N (otherwise negative)	P (Signal greater than 5% of the highest signal was defined as positive)	–	–
KWTKRTLSETSSS [KCNB1_489_501, kinase substrate microarray peptide …]	N (otherwise negative (N))	N (otherwise negative (N))	P (Signal greater than 5% of the highest signal was defined as positive (P))	–	–	–	–	–
LVSPAMREAPTSLSQLLDNSGAP [NCOA6_1479_1501]	–	–	–	P (Signal greater than 5% of the highest signal was defined as positive)	P (Signal greater than 5% of the highest signal was defined as positive)	P (Signal greater than 5% of the highest signal was defined as positive)	O-GlcNAcylation by three isoforms was observed	–
PATSPKPSVASSQLALLLSSEAH [NRIP1_253_275_C263S]	–	–	–	N (otherwise negative)	P (Signal greater than 5% of the highest signal was defined as positive)	P (Signal greater than 5% of the highest signal was defined as positive)	–	–
QFPLPKNLLAKVIQIATSSSTA [DHX30_241_262]	–	–	–	N (otherwise negative)	P (Signal greater than 5% of the highest signal was defined as positive)	N (otherwise negative)	–	–
QVEFRRLSISAES [KPB1_1011_1023, kinase substrate microarray peptide …]	P (Signal greater than 5% of the highest signal was defined as positive (P))	N (otherwise negative (N))	N (otherwise negative (N))	–	–	–	–	–
SDGDSKYSQTSHKLVQLLTTTAEQ [NCOA1_620_643]	–	–	–	–	–	–	–	not identified in our microarray assay
SDTLPEVSAIPISLDGLLFPRPS [PRGR_42_64_C64S]	–	–	–	P (Signal greater than 5% of the highest signal was defined as positive)	P (Signal greater than 5% of the highest signal was defined as positive)	N (otherwise negative)	–	–
SPSQGAASRPAILYALLSSSLKA [NR0B2_9_31_C9S/C11S]	–	–	–	N (otherwise negative)	P (Signal greater than 5% of the highest signal was defined as positive)	N (otherwise negative)	–	–
SQSTFNNPRPGQLGRLLPNQNLP [NCOA2_866_888]	–	–	–	N (otherwise negative)	P (Signal greater than 5% of the highest signal was defined as positive)	N (otherwise negative)	–	–
TTSPTAATTQNPVLSKLLMADQD [LCOR_40_62]	–	–	–	N (otherwise negative)	P (Signal greater than 5% of the highest signal was defined as positive)	N (otherwise negative)	–	–
TVAASPAASGAPTLSRLLEAGPT [BRD8_254_276]	–	–	–	P (Signal greater than 5% of the highest signal was defined as positive)	P (Signal greater than 5% of the highest signal was defined as positive)	P (Signal greater than 5% of the highest signal was defined as positive)	O-GlcNAcylation by three isoforms was observed	–
